# Results as given in patent US20260201008A1, “SECRETIN-DERIVED GLP1R SELECTIVE AGONISTS” (GUBRA A/S, priority 2023, published 2026).
# Numbered stars: 1 amine (or outer) side, 2 acyl side, 3 side chain; on linkers, the order of the positions; unused ones are H or OH. Square brackets hold non-standard residues; d marks the D form. Side chains are listed from the residue outwards. Peptide text beside a SMILES is read from it. * marks the point of attachment. C20 diacid = O=C(O)CCCCCCCCCCCCCCCCCCC(=O)*; γGlu = O=C(O)[C@H](CCC(=O)[*:2])N[*:1]; AEEA = NCCOCCOCC(=O)O; Aib = CC(C)(N)C(=O)O
# Legend:
# GLP1R = GLP1R (Homo sapiens, UniProt P43220); assay: hGLP1R potency, cAMP accumulation in CHO-K1 cells stably overexpressing hGLP1R; assay type: cell-based; design: host or cells: CHO-K1; conditions: for EC50: cAMP accumulation, CHO-K1 cells overexpressing hGLP1R, read-out: hGLP1R pEC50 (converted); for SCTR EC50/GLP1R EC50 ratio: selectivity for hGLP1R over hSCTR, cAMP accumulation in CHO-K1 cells
# Chain of GLP1R (P43220 24-463): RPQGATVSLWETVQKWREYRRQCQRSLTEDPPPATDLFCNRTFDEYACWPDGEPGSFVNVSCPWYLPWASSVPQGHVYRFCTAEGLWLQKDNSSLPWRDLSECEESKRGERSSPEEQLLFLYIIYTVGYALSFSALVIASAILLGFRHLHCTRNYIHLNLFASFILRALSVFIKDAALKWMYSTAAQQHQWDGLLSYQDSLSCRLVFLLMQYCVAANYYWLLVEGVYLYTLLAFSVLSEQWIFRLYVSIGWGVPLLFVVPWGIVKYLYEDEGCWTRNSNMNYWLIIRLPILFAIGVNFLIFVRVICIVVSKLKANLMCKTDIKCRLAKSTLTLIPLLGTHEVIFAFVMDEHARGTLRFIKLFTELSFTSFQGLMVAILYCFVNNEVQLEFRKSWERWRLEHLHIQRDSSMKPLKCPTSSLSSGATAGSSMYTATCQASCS
# Summary of the method: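 TR-FRET cAMP read-out, one hour after reagent addition, following 30 min compound exposure at RT in DPBS/0.05% casein/0.5 mM IBMX. Crude peptides: 5 points, 10-fold steps, n=1. Purified peptides: 11 points, 3-fold steps, n=2. EC50 fitted with a variable-slope sigmoid.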
# SCTR = SCTR (Homo sapiens, UniProt P47872); assay: hSCTR potency, cAMP accumulation in CHO-K1 cells stably overexpressing hSCTR; assay type: cell-based; design: alternatively Euroscreen ES-712-AF; FAST-0161L; host or cells: CHO-K1; conditions: cAMP accumulation, CHO-K1 cells overexpressing hSCTR; read-out: hSCTR pEC50 (converted)
# Chain of SCTR (P47872 23-440): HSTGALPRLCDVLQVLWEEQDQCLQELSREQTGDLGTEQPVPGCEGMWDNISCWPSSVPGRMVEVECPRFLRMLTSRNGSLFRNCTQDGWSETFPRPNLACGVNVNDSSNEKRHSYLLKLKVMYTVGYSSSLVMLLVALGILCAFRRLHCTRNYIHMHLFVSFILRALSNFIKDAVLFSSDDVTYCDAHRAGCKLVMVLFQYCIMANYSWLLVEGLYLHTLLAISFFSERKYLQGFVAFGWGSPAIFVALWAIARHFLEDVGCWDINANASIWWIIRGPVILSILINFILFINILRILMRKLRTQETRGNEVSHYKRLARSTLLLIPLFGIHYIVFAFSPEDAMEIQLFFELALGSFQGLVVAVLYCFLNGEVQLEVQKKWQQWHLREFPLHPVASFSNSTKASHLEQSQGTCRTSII
# Summary of the method: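 CHO-K1/hSCTR cells; DPBS + 0.05% casein + 0.5 mM IBMX; 30 min RT stimulation; cAMP by TR-FRET read at 1 h. Crude peptides: 5-point 10-fold dilutions, n=1. Purified: 11-point 3-fold dilutions, n=2. EC50 via variable-slope fit.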
# [1] = Fibril formation of crude library peptides (Thioflavin T); assay type: physicochemical; design: key: average ThT fluorescence emission at 480 nm (ex 450 nm), raw units; conditions: Physical stability of peptides
# Summary of the method: (§1)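 Fibril formation is scored as average ThT fluorescence from duplicate samples monitored for 72 h at 40° C with shaking stress. Turbidity is the absorbance at 600 nm taken before heating. Peptide concentration was 267 μM at pH 4.0 or pH 7.0.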
# [2] = Turbidity of crude library peptides (absorbance at 600 nm); assay type: physicochemical; conditions: Physical stability of peptides
# Summary of the method: as §1
Compound,EC50 (GLP1R),SCTR EC50/GLP1R EC50 ratio (GLP1R),EC50 (SCTR),Fibril formation [1],Turbidity (pH 7) [2]
CC[C@H](C)[C@H](NC(=O)[C@H](Cc1ccccc1)NC(=O)[C@H](CCCNC(=N)N)NC(=O)[C@H](CCC(N)=O)NC(=O)[C@H](CC(C)C)NC(=O)[C@H](C)NC(=O)[C@H](C)NC(=O)CNC(=O)[C@H](CCC(=O)O)NC(=O)[C@H](CC(C)C)NC(=O)[C@H](CC(C)C)NC(=O)[C@@H](NC(=O)[C@H](CO)NC(=O)[C@@H]1CCCN1C(=O)[C@H](CC(=O)O)NC(=O)[C@H](CO)NC(=O)[C@@H](NC(=O)[C@H](Cc1ccccc1)NC(=O)[C@@H](NC(=O)CNC(=O)[C@H](CCC(=O)O)NC(=O)C(C)(C)NC(=O)[C@@H](N)Cc1c[nH]cn1)[C@@H](C)O)[C@@H](C)O)C(C)C)C(=O)N[C@@H](CCC(N)=O)C(=O)N[C@@H](Cc1c[nH]c2ccccc12)C(=O)N[C@@H](CC(C)C)C(=O)N[C@H](C(N)=O)C(C)C [compound 129] (H-H[Aib]EGTFTSDPSVLLEGAALQRFIQWLV-NH2),7.94 nM,1220,10000 nM,5327,0.12
CC(C)C[C@H](NC(=O)[C@H](Cc1ccccc1)NC(=O)[C@H](CCCNC(=N)N)NC(=O)[C@H](CCC(N)=O)NC(=O)[C@H](CC(C)C)NC(=O)C(C)(C)NC(=O)[C@H](C)NC(=O)[C@H](CCC(=O)O)NC(=O)[C@H](CCC(=O)O)NC(=O)[C@H](Cc1c[nH]c2ccccc12)NC(=O)[C@H](CC(C)C)NC(=O)[C@H](Cc1ccc(O)cc1)NC(=O)[C@H](CO)NC(=O)[C@@H](NC(=O)[C@H](CC(=O)O)NC(=O)[C@H](CO)NC(=O)[C@@H](NC(=O)[C@H](Cc1ccccc1)NC(=O)[C@@H](NC(=O)CNC(=O)[C@H](CCC(=O)O)NC(=O)C(C)(C)NC(=O)[C@@H](N)Cc1c[nH]cn1)[C@@H](C)O)[C@@H](C)O)C(C)C)C(=O)N[C@@H](CCC(=O)O)C(=O)N[C@@H](CCCCNC(=O)COCCOCCNC(=O)COCCOCCNC(=O)CC[C@H](NC(=O)CCCCCCCCCCCCCCCCCCC(=O)O)C(=O)O)C(=O)N[C@@H](CC(C)C)C(=O)N[C@H](C(N)=O)C(C)C [compound 130] (H-H[Aib]EGTFTSDVSYLWEEA[Aib]LQRFLEK([AEEA-AEEA-γGlu-C20 diacid])LV-NH2),0.0316 nM,34990,1000 nM,4181,0.08
CC(C)C[C@H](NC(=O)[C@H](Cc1ccccc1)NC(=O)[C@H](CCCNC(=N)N)NC(=O)[C@H](CCC(N)=O)NC(=O)[C@H](CC(N)=O)NC(=O)C(C)(C)NC(=O)[C@H](C)NC(=O)[C@H](CCC(=O)O)NC(=O)[C@H](CCC(=O)O)NC(=O)[C@H](CCCCNC(=O)COCCOCCNC(=O)COCCOCCNC(=O)CC[C@H](NC(=O)CCCCCCCCCCCCCCCCCCC(=O)O)C(=O)O)NC(=O)[C@H](CC(C)C)NC(=O)[C@H](Cc1ccc(O)cc1)NC(=O)[C@H](CO)NC(=O)[C@@H](NC(=O)[C@H](CC(=O)O)NC(=O)[C@H](CO)NC(=O)[C@@H](NC(=O)[C@H](Cc1ccccc1)NC(=O)[C@@H](NC(=O)CNC(=O)[C@H](CCC(=O)O)NC(=O)C(C)(C)NC(=O)[C@@H](N)Cc1c[nH]cn1)[C@@H](C)O)[C@@H](C)O)C(C)C)C(=O)N[C@@H](CCC(=O)O)C(=O)N[C@@H](Cc1c[nH]cn1)C(=O)N[C@@H](CC(C)C)C(=O)N[C@H](C(N)=O)C(C)C [compound 131] (H-H[Aib]EGTFTSDVSYLK([AEEA-AEEA-γGlu-C20 diacid])EEA[Aib]NQRFLEHLV-NH2),0.00501 nM,996093,5010 nM,2709,0.09

# Other lines, results leading:
EC50 (GLP1R),SCTR EC50/GLP1R EC50 ratio (GLP1R),EC50 (SCTR),Fibril formation [1],Turbidity (pH 7) [2],Compound
7.94 nM,253,2000 nM,41799,0.26,CC[C@H](C)[C@H](NC(=O)[C@H](Cc1ccccc1)NC(=O)[C@H](CCCNC(=N)N)NC(=O)[C@H](CCC(N)=O)NC(=O)[C@H](CC(C)C)NC(=O)[C@H](C)NC(=O)[C@H](C)NC(=O)CNC(=O)[C@H](CCC(=O)O)NC(=O)[C@H](CC(C)C)NC(=O)[C@H](CC(C)C)NC(=O)[C@H](Cc1ccccc1)NC(=O)[C@H](CO)NC(=O)[C@@H]1CCCN1C(=O)[C@H](CC(=O)O)NC(=O)[C@H](CO)NC(=O)[C@@H](NC(=O)[C@H](Cc1ccccc1)NC(=O)[C@@H](NC(=O)CNC(=O)[C@H](CCC(=O)O)NC(=O)C(C)(C)NC(=O)[C@@H](N)Cc1c[nH]cn1)[C@@H](C)O)[C@@H](C)O)C(=O)N[C@@H](CCC(N)=O)C(=O)N[C@@H](Cc1c[nH]c2ccccc12)C(=O)N[C@@H](CC(C)C)C(=O)N[C@H](C(N)=O)C(C)C [compound 126] (H-H[Aib]EGTFTSDPSFLLEGAALQRFIQWLV-NH2)
7.94 nM,464,3980 nM,11084,0.19,CC[C@H](C)[C@H](NC(=O)[C@H](Cc1ccccc1)NC(=O)[C@H](CCCNC(=N)N)NC(=O)[C@H](CCC(N)=O)NC(=O)[C@H](CC(C)C)NC(=O)[C@H](C)NC(=O)[C@H](C)NC(=O)CNC(=O)[C@H](CCC(=O)O)NC(=O)[C@H](CC(C)C)NC(=O)[C@H](CC(C)C)NC(=O)[C@H](Cc1c[nH]c2ccccc12)NC(=O)[C@H](CO)NC(=O)[C@@H]1CCCN1C(=O)[C@H](CC(=O)O)NC(=O)[C@H](CO)NC(=O)[C@@H](NC(=O)[C@H](Cc1ccccc1)NC(=O)[C@@H](NC(=O)CNC(=O)[C@H](CCC(=O)O)NC(=O)C(C)(C)NC(=O)[C@@H](N)Cc1c[nH]cn1)[C@@H](C)O)[C@@H](C)O)C(=O)N[C@@H](CCC(N)=O)C(=O)N[C@@H](Cc1c[nH]c2ccccc12)C(=O)N[C@@H](CC(C)C)C(=O)N[C@H](C(N)=O)C(C)C [compound 127] (H-H[Aib]EGTFTSDPSWLLEGAALQRFIQWLV-NH2)
15.8 nM,1467,20000 nM,6144,0.20,CC[C@H](C)[C@H](NC(=O)[C@H](Cc1ccccc1)NC(=O)[C@H](CCCNC(=N)N)NC(=O)[C@H](CCC(N)=O)NC(=O)[C@H](CC(C)C)NC(=O)[C@H](C)NC(=O)[C@H](C)NC(=O)CNC(=O)[C@H](CCC(=O)O)NC(=O)[C@H](CC(C)C)NC(=O)[C@H](CC(C)C)NC(=O)[C@H](Cc1ccc(O)cc1)NC(=O)[C@H](CO)NC(=O)[C@@H]1CCCN1C(=O)[C@H](CC(=O)O)NC(=O)[C@H](CO)NC(=O)[C@@H](NC(=O)[C@H](Cc1ccccc1)NC(=O)[C@@H](NC(=O)CNC(=O)[C@H](CCC(=O)O)NC(=O)C(C)(C)NC(=O)[C@@H](N)Cc1c[nH]cn1)[C@@H](C)O)[C@@H](C)O)C(=O)N[C@@H](CCC(N)=O)C(=O)N[C@@H](Cc1c[nH]c2ccccc12)C(=O)N[C@@H](CC(C)C)C(=O)N[C@H](C(N)=O)C(C)C [compound 128] (H-H[Aib]EGTFTSDPSYLLEGAALQRFIQWLV-NH2)
